Source: publication PMC11943675, “Studies of Piper auritum Kuntz’s Mutagenic and Antimutagenic Properties Using the Ames Test” (Metabolites, 2025)
“And” between values parts separate entries of the source, which are not always exact repeats. Equal values may be shown once. Read-outs that look alike come from different tables or passages of the source.

Experiments:
S. typhimurium TA100 = experiment: Ames test (Salmonella/microsome mutagenicity assay), strain TA100; assay type: cell-based, Salmonella typhimurium
Experimental: (§1) The study was carried out according to the indications of Maron and Ames, as well as with the recommendations expressed by the OCDE with respect to this assay. The Salmonella typhimurium strains used were TA98, TA100, TA102, TA1535, and TA1537.
(§2) In this case, the concentrations used were 10, 50, 100, 500, and 1000 µg/plate. Both studies were performed without and with the inclusion of the S9 fraction. In the last case, the S9 fraction was mixed with 5 mM glucose-6 phosphate, 4 mM NADPH, 8 mM MgCl2, and phosphate buffer at pH 7.4. The reaction mixture with or without S9 was placed in Petri dishes containing minimum agar plus glucose and Vogel–Bonner salts and left at 37 °C for 48 h. Finally, the number of revertant colonies (His^+) in each treatment was counted. Importantly, we used different mutagens as positive controls depending on the strain.
(§3) The toxicity of the tested agents was assessed by observing background bacterial growth on minimal agar plates due to traces of histidine in the medium.

S. typhimurium TA98 [1] = experiment: Ames test (Salmonella/microsome mutagenicity assay), strain TA98; assay type: cell-based, Salmonella typhimurium
Experimental: as §1, §2, §3

S. typhimurium TA1537 = experiment: Ames test (Salmonella/microsome mutagenicity assay), strain TA1537; assay type: cell-based, Salmonella typhimurium
Experimental: as §1, §2, §3

S. typhimurium TA1535 = assay type: cell-based, Salmonella typhimurium; settings: positive mutagen
Experimental: as §1, §2, §3

S. typhimurium TA102 = experiment: Ames test (Salmonella/microsome mutagenicity assay), strain TA102; assay type: cell-based, Salmonella typhimurium
Experimental: as §1, §2, §3

S. typhimurium TA98 [2] = settings: strain TA98; cited from earlier work
human CYP1A1 [3] = target: T1, human CYP1A1 (Homo sapiens, UniProt P04798); experiment: biochemical
T1 sequence (P04798 1-512): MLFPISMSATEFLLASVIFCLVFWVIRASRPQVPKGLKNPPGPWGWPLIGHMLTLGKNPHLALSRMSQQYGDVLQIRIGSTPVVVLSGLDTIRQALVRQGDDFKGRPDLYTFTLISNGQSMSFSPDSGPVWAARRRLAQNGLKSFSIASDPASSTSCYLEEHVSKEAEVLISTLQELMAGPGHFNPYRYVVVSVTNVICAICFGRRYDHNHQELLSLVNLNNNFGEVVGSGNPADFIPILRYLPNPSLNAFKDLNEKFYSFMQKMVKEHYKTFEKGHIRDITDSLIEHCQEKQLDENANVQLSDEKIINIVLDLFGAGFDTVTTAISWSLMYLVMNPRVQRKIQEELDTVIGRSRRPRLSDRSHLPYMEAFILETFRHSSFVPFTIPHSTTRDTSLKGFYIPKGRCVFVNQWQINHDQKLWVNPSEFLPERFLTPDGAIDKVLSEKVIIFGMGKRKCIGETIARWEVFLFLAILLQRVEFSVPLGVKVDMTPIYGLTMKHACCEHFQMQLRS
Experimental: (§4) The protein content was estimated via the Bradford assay.
(§5) To determine the type of inhibition, an incubation volume of 200 μL containing human CYP1A1 bacterial membranes (80 μg) and 0.5 mM NADPH in buffer pH 7.6 (50 mM Tris–HCl and 25 mM MgCl2) was used.

human CYP1A1 [4] = target: T1, human CYP1A1; settings: nonlinear regression and Lineweaver–Burk plots
Experimental: as §4, §5

mouse bone marrow = settings: cited from earlier work
[5] = test system: Salmonella typhimurium strains TA98, TA100, TA102, TA1535, and TA1537; experiment: Ames test, overall verdict over the five strains; assay type: cell-based
Experimental: as §1, §2, §3

Salmonella typhimurium = settings: cited from earlier work
rat hepatocytes = settings: cited from earlier work
[6] = test system: strain TA98 of S. typhimurium; settings: cited from earlier work

O=[N+]([O-])c1ccc2c(c1)Cc1ccccc1-2 [2-nitrofluorene, reference compound]
His^+ Revertants (S. typhimurium TA100; positive mutagen, TA100 (−S9), 5 µg): 1909 ± 428 ^1 | His^+ Revertants (S. typhimurium TA98 [1]; positive mutagen, TA98 (−S9), 5 µg): 2419 ± 169 ^1 and 2070 ± 44 ^1

Nc1ccc2cc3ccccc3cc2c1 [aminoanthracene, 2-aminoanthracene, reference compound]
His^+ Revertants (S. typhimurium TA1537; positive mutagen, TA1537 (+S9), 2 µg): 120 ± 12 ^4 | His^+ Revertants (S. typhimurium TA1535; TA1535 (+S9), 2 µg): 371 ± 20 ^4 | His^+ Revertants (S. typhimurium TA102; positive mutagen, TA102 (+S9), 5 µg): 2080 ± 27 ^7

CC1=NN(c2ccc([N+](=O)[O-])cc2)C(=O)C1[N+](=O)[O-] (stereo not drawn) [picrolonic acid, reference compound]
His^+ Revertants (S. typhimurium TA1537; positive mutagen, TA1537 (−S9), 100 µg): 63 ± 2 ^5

C=CCc1ccc2c(c1)OCO2 [safrole, 5-(2-propenyl)-1,3-benzodioxone]
mutagenicity (S. typhimurium TA98 [2]): no mutagenicity | Ki (human CYP1A1 [3]): 380 nM | type of inhibition (human CYP1A1 [4]): competitive inhibition | mutagenicity, mouse bone marrow micronuclei assay (mouse bone marrow): negative | toxicity (background bacterial growth) ([5]; tested concentrations): absence of toxicity | mutagenic potential ([5]; with and without S9): absence of a mutagenic effect | His^+ Revertants (S. typhimurium TA100; TA100 (+S9), 10 μg/plate): 97 ± 18 | His^+ Revertants (S. typhimurium TA100; TA100 (+S9), 50 μg/plate): 108 ± 18 | His^+ Revertants (S. typhimurium TA100; TA100 (+S9), 100 μg/plate): 105 ± 9 | His^+ Revertants (S. typhimurium TA100; TA100 (+S9), 500 μg/plate): 108 ± 9 | His^+ Revertants (S. typhimurium TA100; TA100 (+S9), 1000 μg/plate): 102 ± 9 | His^+ Revertants (S. typhimurium TA100; TA100 (−S9), 10 μg/plate): 110 ± 16 | His^+ Revertants (S. typhimurium TA100; TA100 (−S9), 50 μg/plate): 120 ± 17 | His^+ Revertants (S. typhimurium TA100; TA100 (−S9), 100 μg/plate): 107 ± 10 | His^+ Revertants (S. typhimurium TA100; TA100 (−S9), 500 μg/plate): 100 ± 17 | His^+ Revertants (S. typhimurium TA100; TA100 (−S9), 1000 μg/plate): 112 ± 6 | mutagenicity, Ames test (Salmonella typhimurium): negative | DNA adducts and chromosomal aberrations (rat hepatocytes): induction of DNA adducts and chromosomal aberrations | gene mutations (rat hepatocytes): no gene mutations | His^+ Revertants (S. typhimurium TA1537; TA1537 (+S9), 10 μg/plate): 12 ± 3 | His^+ Revertants (S. typhimurium TA1537; TA1537 (+S9), 50 μg/plate): 10 ± 3 | His^+ Revertants (S. typhimurium TA1537; TA1537 (+S9), 100 μg/plate): 10 ± 1 | His^+ Revertants (S. typhimurium TA1537; TA1537 (+S9), 500 μg/plate): 11 ± 4 | His^+ Revertants (S. typhimurium TA1537; TA1537 (+S9), 1000 μg/plate): 9 ± 3 | His^+ Revertants (S. typhimurium TA1537; TA1537 (−S9), 10 μg/plate): 10 ± 3 | His^+ Revertants (S. typhimurium TA1537; TA1537 (−S9), 50 μg/plate): 14 ± 4 | His^+ Revertants (S. typhimurium TA1537; TA1537 (−S9), 100 μg/plate): 10 ± 1 | His^+ Revertants (S. typhimurium TA1537; TA1537 (−S9), 500 μg/plate): 12 ± 3 | His^+ Revertants (S. typhimurium TA1537; TA1537 (−S9), 1000 μg/plate): 11 ± 4 | antimutagenic potential against heterocyclic aromatic amines [6]: strong antimutagenic potential | His^+ Revertants (S. typhimurium TA98 [1]; TA98 (+S9), 10 μg/plate): 20 ± 2 | His^+ Revertants (S. typhimurium TA98 [1]; TA98 (+S9), 50 μg/plate): 34 ± 8 | His^+ Revertants (S. typhimurium TA98 [1]; TA98 (+S9), 100 μg/plate): 38 ± 9 | His^+ Revertants (S. typhimurium TA98 [1]; TA98 (+S9), 500 μg/plate): 26 ± 9 | His^+ Revertants (S. typhimurium TA98 [1]; TA98 (+S9), 1000 μg/plate): 36 ± 7 | His^+ Revertants (S. typhimurium TA98 [1]; TA98 (−S9), 10 μg/plate): 19 ± 3 | His^+ Revertants (S. typhimurium TA98 [1]; TA98 (−S9), 50 μg/plate): 22 ± 7 | His^+ Revertants (S. typhimurium TA98 [1]; TA98 (−S9), 100 μg/plate): 27 ± 4 | His^+ Revertants (S. typhimurium TA98 [1]; TA98 (−S9), 500 μg/plate): 18 ± 3 | His^+ Revertants (S. typhimurium TA98 [1]; TA98 (−S9), 1000 μg/plate): 22 ± 9 | His^+ Revertants (S. typhimurium TA102; TA102 (+S9), 10 μg/plate): 573 ± 6 | His^+ Revertants (S. typhimurium TA102; TA102 (+S9), 50 μg/plate): 558 ± 14 | His^+ Revertants (S. typhimurium TA102; TA102 (+S9), 100 μg/plate): 520 ± 10 | His^+ Revertants (S. typhimurium TA102; TA102 (+S9), 500 μg/plate): 477 ± 17 | His^+ Revertants (S. typhimurium TA102; TA102 (+S9), 1000 μg/plate): 504 ± 12 | His^+ Revertants (S. typhimurium TA102; TA102 (−S9), 10 μg/plate): 502 ± 4 | His^+ Revertants (S. typhimurium TA102; TA102 (−S9), 50 μg/plate): 489 ± 19 | His^+ Revertants (S. typhimurium TA102; TA102 (−S9), 100 μg/plate): 484 ± 13 | His^+ Revertants (S. typhimurium TA102; TA102 (−S9), 500 μg/plate): 451 ± 18 | His^+ Revertants (S. typhimurium TA102; TA102 (−S9), 1000 μg/plate): 512 ± 40

[N-]=[N+]=[N-].[Na+] [sodium azide]
His^+ Revertants (S. typhimurium TA1535; TA1535 (−S9), 1 µg): 481 ± 28 ^3
